Measured values from article PMC10974995 (Pathogens, 2024).
In brackets after ≈: the same amount, converted by molar mass. Read-outs that look alike come from different tables or passages of the source.

Assays:
[1] = test system: PK-15 (porcine kidney epithelial cells) and/or FFL (feline fetus lung cells); experiment: cells; settings: Sus scrofa
[2] = test system: boar sperm
[3] = test system: boar sperm and PK-15 cells
[4] = test system: boar sperm; experiment: cells
[5] = test system: PK-15 (porcine kidney epithelial cells) and/or FFL (feline fetus lung cells)
[6] = test system: Rat; settings: po; cited from earlier work
[7] = test system: boar sperm; settings: cited from earlier work
[8] = test system: rodents; settings: in vivo; cited from earlier work
[9] = test system: Fish; settings: cited from earlier work
[10] = test system: differentiated PK-15 cells
[11] = test system: differentiated PK-15 cells; experiment: cells; settings: Sus scrofa, PK-15, read-out: Mitochondrial Toxicity 1d (EC50, acceleration of glycolysis and depolarization of mitochondria)
[12] = PK-15, 48 h, read-out: EC50 In Vitro ICP 2d
[13] = 72 h, read-out: EC50 Ex Vivo BSMI 1–3d

| Compound | EC50 [1, 12] [µg/mL] | Toxicity profile of pure toxins and chemicals in the BSMI and ICP assays [3] | EC50 [4, 13] [µg/mL] | In Vitro ICP 2d, toxic (+) / nontoxic (−), microbial metabolites [5] | In Vivo (toxicity to experimental animals), mycotoxins and fungal metabolites [6] | Toxicity In Vivo LD50 Rat p.o. [6] [mg/kg] | In Vivo (toxicity to experimental animals), xenobiotic chemicals [9] | Toxicity In Vivo LD50 Fish [9] [mg/L] | Ex Vivo BSMI 1–3d, toxic (+) / nontoxic (−), xenobiotic chemicals ([2]; pig (boar)) | Mitochondrial toxicity after testing with somatic cells [10] | In Vitro ICP 2d, toxic (+) / nontoxic (−), xenobiotic chemicals [5] | EC50 [11] [µg/mL] | other results |
| --- | --- | --- | --- | --- | --- | --- | --- | --- | --- | --- | --- | --- | --- |
| C[C@@H]1Cc2c(Cl)cc(C(=O)N[C@@H](Cc3ccccc3)C(=O)O)c(O)c2C(=O)O1 [Ochratoxin A] | > 50 | not detected in our assays | > 50 | (−) >50 | + (key: LD50 rat p.o. <1000 mg kg ^–1 Classified as Toxic in vivo +.) | 20 |  |  |  |  |  |  | Ex Vivo BSMI 1–3d, toxic (+) / nontoxic (−), microbial metabolites ([2]; pig (boar)): (−) >50 |
| Alamethicin |  | toxic in both the BSMI and ICP tests |  | (+) 6 (key: (+): For the microbial metabolites, EC50 < 5 µg mL^−1 and <10 µg mL^−1 were considered as toxic in the BSMI and ICP assays, respectively; nontoxic as (−)) | + (key: LD50 rat p.o. <1000 mg kg ^–1 Classified as Toxic in vivo +.) | 80 |  |  |  |  |  |  | EC50 Ex Vivo BSMI 1–3d [2]: (+) 0.5 μg mL^–1; Ex Vivo BSMI 1–3d, toxic (+) / nontoxic (−), microbial metabolites [2]: (+) 0.5 (key: (+): For the microbial metabolites, EC50 < 5 µg mL^−1 and <10 µg mL^−1 were considered as toxic in the BSMI and ICP assays, respectively; nontoxic as (−)); EC50 In Vitro ICP 2d [5]: (+) 6 μg mL^–1 |
| CC(C)C[C@H]1OC(=O)[C@H](C(C)C)NC(=O)[C@H](C(C)C)OC(=O)[C@@H](C)NC(=O)[C@@H](CC(C)C)OC(=O)[C@H](C(C)C)NC(=O)[C@H](C(C)C)OC(=O)[C@@H](C)NC(=O)[C@@H](CC(C)C)OC(=O)[C@H](C(C)C)NC(=O)[C@H](C(C)C)OC(=O)[C@@H](C)NC1=O [Cereulide] |  |  |  |  |  |  |  |  |  |  |  |  | Toxicity in sperm motility tests [7]: toxic; Toxicity to rodents [8]: non-toxic |
| CCCCCCCCCC[N+](C)(C)CCCCCCCCCC [DDAC, Didecyl- dimethyl- ammonium- chloride] | 0.5 | highly toxic in both assays | 1 |  |  | 238 | + (key: LD50 Fish Inhaled <10 μg mL ^–1 = Toxic in vivo Marked as +.) | 0.5 | (+) 1 (key: (+): For the xenobiotic chemicals, EC50 values < 10 µg mL^−1 and <20 µg mL^−1 were considered as toxic in the BSMI assay and in the ICP assay, respectively; nontoxic as (−)) | Mitochondrial toxicity was recorded | (+) 0.5 (key: (+): For the xenobiotic chemicals, EC50 values < 10 µg mL^−1 and <20 µg mL^−1 were considered as toxic in the BSMI assay and in the ICP assay, respectively; nontoxic as (−)) | 1 |  |
| Oc1cc(Cl)ccc1Oc1ccc(Cl)cc1Cl [Triclosan, Triclorooxy-phenylether] | 20 (≈ 69.1 µM) |  | 1 (≈ 3.45 µM) |  |  | 3700 | + (key: LD50 Fish Inhaled <10 μg mL ^–1 = Toxic in vivo Marked as +.) | 0.5 | (+) 1 (key: (+): For the xenobiotic chemicals, EC50 values < 10 µg mL^−1 and <20 µg mL^−1 were considered as toxic in the BSMI assay and in the ICP assay, respectively; nontoxic as (−)) | Mitochondrial toxicity was recorded | 20 (−) | 5 (≈ 17.3 µM) | EC50 ([1]; PK-15, read-out: EC50 In Vitro ICP, positive controls, mean of 10 or 11 measurements): 13 µg/mL (≈ 44.9 µM); Sperm motility relative to the negative control [2]: < 20%; EC50 ([4]; read-out: EC50 Ex Vivo BSMI, positive controls, mean of 10 or 11 measurements): 1 µg/mL (≈ 3.45 µM) |
